Measurements reported in patent US4468469A, “Substituted phenylacetic acids and salts as TBP blocking agents in iodothyronine immunoassays” (Miles Laboratories, Inc., priority 1982, dated 1984).

Test system: anti(thyroxine) antiserum / apoglucose oxidase
Assay: Apoenzyme reactivation immunoassay system for serum thyroxine
Type: biochemical
Settings: 2 mM sodium salt of dissociating agent in buffer
Experimental: Standard curves for serum thyroxine were generated using a semiautomated assay protocol on the Gilford Clinical Chemistry Analyzer System 203-S (Gilford Instrument Laboratories, Oberline, OH, USA). […] The FAD-thyroxine conjugate (40 nM in 0.1M sodium phosphate, pH 7.0, 0.01% Triton X-100) as a 0.05 ml aliquot was added to the reaction cup and allowed to equilibrate for 30 seconds. The reaction was initiated by addition of 0.10 ml 1.0 μM apoglucose oxidase, 2 mM 4-aminoantipyrine, 12% glycerol, 80 mM sodium phosphate, pH 7.0. The absorbance at 520 nm was recorded after an 8 minute incubation.

For `O=C(O)Cc1ccccc1Oc1ccc(Cl)cc1Cl` [Fenclofenac, 2-(2,4-dichlorophenoxy)phenylacetic acid], the “Absorbance (520 nm)” value (Thyroxine Standard 0 μg/L) was 0.797, the “Absorbance (520 nm)” value (Thyroxine Standard 25 μg/L) was 0.823 and the “Absorbance (520 nm)” value (Thyroxine Standard 75 μg/L) was 0.893. For the same molecule, the “Absorbance (520 nm)” value (Thyroxine Standard 125 μg/L) was 0.965 and the “Absorbance (520 nm)” value (Thyroxine Standard 200 μg/L) was 1.078.
